≈ marks a conversion by molar mass, not a printed value. Where two headings read alike, the source gives them in different places. Starred links: 1 amine or outer side, 2 acyl side, 3 side chain; linkers in the order of their positions; H or OH if unused. Positions of bridges follow the written chain, without caps; N, C: chain ends. Residues, ends and D or L forms follow the SMILES beside them. *: point of attachment. C20 diacid = O=C(O)CCCCCCCCCCCCCCCCCCC(=O)*; γGlu = O=C(O)[C@H](CCC(=O)[*:2])N[*:1]
Legend:
[1] = Assay (IV) determination of solubility; type: physicochemical
Procedure, shortened: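 Eight 100 mM buffers (glycylglycine pH 3.0–5.0, bistrispropane pH 6.0–8.0) each received an equal volume of polypeptide dissolved in water at ~500 nmol/ml. Soluble polypeptide was measured by HPLC following 18 hours at room temperature and centrifugation.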

[2] = biological target: T1, human amylin receptor (amylin 3(a) receptor: human calcitonin receptor + RAMP-3) (Homo sapiens, UniProt O60896+P30988); assay: Assay (II)a functional CRE-luciferase assay, human amylin receptor; type: cell-based; conditions: Table 2; BHK amylin 3(a)-receptor/CRE-luc cells
T1 construct: expressed in transfected cells; host or cells: BHK570
T1 sequence (P30988 25-474): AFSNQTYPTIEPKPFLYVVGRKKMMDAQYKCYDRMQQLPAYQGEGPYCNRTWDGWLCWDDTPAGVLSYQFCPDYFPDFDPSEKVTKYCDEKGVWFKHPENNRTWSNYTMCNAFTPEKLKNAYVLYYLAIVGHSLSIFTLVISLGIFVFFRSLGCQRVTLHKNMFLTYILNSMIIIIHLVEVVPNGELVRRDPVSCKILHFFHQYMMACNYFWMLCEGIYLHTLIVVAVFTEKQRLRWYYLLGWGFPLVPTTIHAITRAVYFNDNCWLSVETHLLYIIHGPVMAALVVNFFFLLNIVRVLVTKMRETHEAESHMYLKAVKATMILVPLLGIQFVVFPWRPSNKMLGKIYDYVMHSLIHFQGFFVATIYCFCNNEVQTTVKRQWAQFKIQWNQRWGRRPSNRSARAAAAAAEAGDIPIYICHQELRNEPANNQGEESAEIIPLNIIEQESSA
T1 sequence (O60896 24-148 partner): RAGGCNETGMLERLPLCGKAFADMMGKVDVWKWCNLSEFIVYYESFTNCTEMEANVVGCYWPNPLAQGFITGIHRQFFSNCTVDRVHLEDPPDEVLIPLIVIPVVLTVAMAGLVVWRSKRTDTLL

[3] = biological target: T2, rat amylin 3(a) receptor (rat calcitonin(a) receptor + rat RAMP3) (Rattus norvegicus, UniProt P32214+Q9JJ73); assay: Assay (II)b functional cAMP FlashPlate assay, rat amylin receptor; type: cell-based; conditions: Table 11
T2 construct: expressed in transfected cells; host or cells: BHK tk'ts 13
T2 sequence (P32214 25-479 isoform P32214-2 limits assumed): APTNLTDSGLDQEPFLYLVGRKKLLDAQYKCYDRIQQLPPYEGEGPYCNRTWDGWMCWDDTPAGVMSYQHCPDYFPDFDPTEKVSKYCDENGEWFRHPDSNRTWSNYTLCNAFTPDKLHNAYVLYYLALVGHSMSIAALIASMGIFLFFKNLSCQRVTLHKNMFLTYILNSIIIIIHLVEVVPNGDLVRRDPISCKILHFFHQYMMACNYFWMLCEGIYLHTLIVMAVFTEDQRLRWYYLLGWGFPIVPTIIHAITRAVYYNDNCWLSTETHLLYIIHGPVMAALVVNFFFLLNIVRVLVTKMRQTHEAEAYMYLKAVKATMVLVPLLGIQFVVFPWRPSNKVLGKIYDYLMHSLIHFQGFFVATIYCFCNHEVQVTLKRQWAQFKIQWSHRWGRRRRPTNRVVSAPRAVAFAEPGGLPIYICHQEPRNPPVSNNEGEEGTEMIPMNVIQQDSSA
T2 sequence (Q9JJ73 23-147 partner): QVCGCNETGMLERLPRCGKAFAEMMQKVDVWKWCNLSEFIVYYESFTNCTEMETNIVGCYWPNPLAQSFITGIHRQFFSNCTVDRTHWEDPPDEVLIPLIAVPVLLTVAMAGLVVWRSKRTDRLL
Source text: (§1) Assay (II)b—Rat Calcitonin and Rat Amylin Receptor Assays
(§2) Activation of calcitonin and amylin (coexpression of calcitonin receptor and receptor activity modifying proteins (RAMP)) receptors lead to increased intracellular concentrations of cAMP. In order to quantify the cAMP levels in transiently transfected cells the Adenylyl Cyclase Activation FlashPlate® Assay from […] was used. The basic principle of the FlashPlate® Assay is a competition between radioactive and non-radioactive cAMP generated by the cells for a fixed number of binding sites.
(§3) Construction of rat calcitonin(a)—and rat amylin 3(a)-receptor cells.
(§4) BHK tk'ts 13 cells were transiently transfected with either rat calcitonin (a) receptor or amylin 3 (a) receptor (rat calcitonin(a) receptor+ rat RAMP3) using FuGENE® 6 (ROCHE), according to the manufacturers recommendations.
(§5) 24 hours after transient transfection the cells (rat calcitonin(a)—or rat amylin 3(a)—receptor cells) were added (100.000 cells/well) to the 96 well FlashPlates® with samples or standard in FlashPlate stimulation buffer with IBMX and incubated for 30 min. Detection mix was created according to manufacturers protocol and scintillation measured after 3 h of incubation on TopCounter™ (Packard).

[4] = biological target: T3, rat calcitonin (a) receptor (Rattus norvegicus, UniProt P32214); assay: Assay (II)b functional cAMP FlashPlate assay, rat calcitonin receptor; type: cell-based; conditions: Table 11; read-out: CTa receptor rat EC50
T3 construct: expressed in transfected cells; host or cells: BHK tk'ts 13
T3 sequence (P32214 25-479 isoform P32214-2 limits assumed): T2 sequence (P32214 25-479 isoform P32214-2 limits assumed)
Source text: as §1, §2, §3, §4, §5

[5] = biological target: T4, human calcitonin receptor (Homo sapiens, UniProt P30988); assay: Assay (II)a functional CRE-luciferase assay, human calcitonin receptor; type: cell-based; conditions: Table 7; human calcitonin (CTa) receptor
T4 construct: expressed in transfected cells; host or cells: BHK570
T4 sequence (P30988 25-474): T1 sequence (P30988 25-474)

[6] = bistrispropane buffer, pH 6, pH 6.0, read-out: Solubility pH 6.0
[7] = bistrispropane buffer, pH 6.5, pH 6.5, read-out: Solubility pH 6.5
[8] = bistrispropane buffer, pH 7, pH 7.0, read-out: Solubility pH 7.0
[9] = bistrispropane buffer, pH 7.5, pH 7.5, read-out: Solubility pH 7.5
[10] = bistrispropane buffer, pH 8, pH 8.0, read-out: Solubility pH 8.0
[11] = glycylglycine buffer, pH 3, pH 3.0, read-out: Solubility pH 3.0
[12] = glycylglycine buffer, pH 4, pH 4.0, 18 hours at room temperature, Table 2, read-out: Solubility pH 4.0
[13] = glycylglycine buffer, pH 4, pH 4.0, read-out: Solubility pH 4.0
[14] = glycylglycine buffer, pH 5, pH 5.0, read-out: Solubility pH 5.0

Row | solubility at 18 h [1, 6] [µM] | solubility at 18 h [1, 7] [µM] | solubility at 18 h ([1]; bistrispropane buffer, pH 7, pH 7.0, 18 hours at room temperature, Table 3, read-out: Solubility pH 7.0) [µM] | solubility at 18 h ([1]; bistrispropane buffer, pH 7, pH 7.0, Table 8, read-out: Solubility pH 7.0) [µM] | solubility at 18 h ([1]; bistrispropane buffer, pH 7, pH 7.0, Table 9, read-out: Solubility pH 7.0) [µM] | solubility at 18 h [1, 8] [µM] | solubility at 18 h ([1]; bistrispropane buffer, pH 7.5, pH 7.5, Table 9, read-out: Solubility pH 7.5) [µM] | solubility at 18 h [1, 9] [µM] | solubility at 18 h [1, 10] [µM] | solubility at 18 h [1, 11] [µM] | solubility at 18 h [1, 12] [µM] | solubility at 18 h [1, 13] [µM] | solubility at 18 h ([1]; pH 5.0, read-out: Solubility pH 5.0) [µM] | EC50 [2] [nM] | EC50 [3] [nM] | EC50 [4] [nM] | EC50 [5] [nM] | solubility at 18 h [1, 14] [µM] | solubility at 18 h ([1]; pH 7.0, read-out: Solubility pH 7.0) [µM] | Compound
1 | > 200 | > 200 | > 200 | > 200 | > 200 | > 200 | > 200 | > 200 | > 200 | > 200 | 116 (≈ 514 µg/mL) | 116 (≈ 514 µg/mL) | 5 (≈ 22.2 µg/mL) | 0.212 | 0.33 | 1.73 | 0.208 | – | – | CC[C@H](C)[C@H](NC(=O)[C@@H]1CCCN1C(=O)CNC(=O)[C@H](Cc1ccccc1)NC(=O)[C@H](CO)NC(=O)[C@H](CO)NC(=O)[C@H](CO)NC(=O)[C@H](CO)NC(=O)[C@H](CCCNC(=N)N)NC(=O)[C@H](Cc1cnc[nH]1)NC(=O)[C@H](CC(C)C)NC(=O)[C@H](Cc1ccccc1)NC(=O)[C@H](CCC(=O)O)NC(=O)[C@H](C)NC(=O)[C@H](CC(C)C)NC(=O)[C@H](CCCNC(=N)N)NC(=O)[C@H](CCC(N)=O)NC(=O)[C@@H](NC(=O)[C@H](C)NC(=O)[C@@H]1CSSC[C@H](NC(=O)[C@H](Cc2cnc[nH]2)NC(=O)CC[C@H](NC(=O)CCCCCCCCCCCCCCCCCCC(=O)O)C(=O)O)C(=O)N[C@@H](CC(N)=O)C(=O)N[C@@H]([C@@H](C)O)C(=O)N[C@@H](C)C(=O)N[C@@H]([C@@H](C)O)C(=O)N1)[C@@H](C)O)C(=O)N[C@@H](CC(C)C)C(=O)N1CCC[C@H]1C(=O)N1CCC[C@H]1C(=O)N[C@H](C(=O)N[C@@H](CC(=O)O)C(=O)N[C@H](C(=O)NCC(=O)N[C@@H](CO)C(=O)N[C@@H](CC(=O)O)C(=O)N[C@H](C(=O)N[C@@H](Cc1ccc(O)cc1)C(N)=O)[C@@H](C)O)C(C)C)[C@@H](C)O [Example 9, N-alpha-[(S)-4-Carboxy-4-(19-carboxynonadecanoylamino)butyryl]-[His1,Glu14,His17,Arg18,Ser21,Ser22,Asp31,Asp35]-pramlintide] ({C20 diacid-γGlu}-HCNTATCATQRLAEFLHRSSSSFGPILPPTDVGSDTY-NH2; disulfide 2-7)
2 | > 200 | 45 (≈ 214 µg/mL) | – | – | – | – | – | 26 (≈ 124 µg/mL) | 69 (≈ 328 µg/mL) | > 200 | > 200 | > 200 | – | 0.0775 | 0.082 | 6.76 | 0.409 | > 200 | 9 (≈ 42.8 µg/mL) | CC[C@H](C)[C@H](NC(=O)[C@@H]1CCCN1C(=O)CNC(=O)[C@H](Cc1ccccc1)NC(=O)[C@H](CC(N)=O)NC(=O)[C@H](CC(N)=O)NC(=O)[C@H](CO)NC(=O)[C@H](CO)NC(=O)[C@H](Cc1cnc[nH]1)NC(=O)[C@H](CCCNC(=N)N)NC(=O)[C@H](CC(C)C)NC(=O)[C@H](Cc1ccccc1)NC(=O)[C@H](CCC(=O)O)NC(=O)[C@H](C)NC(=O)[C@H](CC(C)C)NC(=O)[C@H](CCCNC(=N)N)NC(=O)[C@H](CCC(N)=O)NC(=O)[C@@H](NC(=O)[C@H](C)NC(=O)[C@@H]1CSSC[C@H](NC(=O)[C@H](Cc2cnc[nH]2)NC(=O)[C@H](Cc2cnc[nH]2)NC(=O)[C@H](Cc2cnc[nH]2)NC(=O)CC[C@H](NC(=O)CCCCCCCCCCCCCCCCCCC(=O)O)C(=O)O)C(=O)N[C@@H](CC(N)=O)C(=O)N[C@@H]([C@@H](C)O)C(=O)N[C@@H](C)C(=O)N[C@@H]([C@@H](C)O)C(=O)N1)[C@@H](C)O)C(=O)N[C@@H](CC(C)C)C(=O)N1CCC[C@H]1C(=O)N1CCC[C@H]1C(=O)N[C@H](C(=O)N[C@@H](CC(N)=O)C(=O)N[C@H](C(=O)NCC(=O)N[C@@H](CO)C(=O)N[C@@H](CC(N)=O)C(=O)N[C@H](C(=O)N[C@@H](Cc1ccc(O)cc1)C(N)=O)[C@@H](C)O)C(C)C)[C@@H](C)O [Example 12, N-alpha-[(S)-4-Carboxy-4-(19-carboxynonadecanoylamino)butyryl]-His-His-[His1,Glu14,Arg17]-pramlintide] ({C20 diacid-γGlu}-HHHCNTATCATQRLAEFLRHSSNNFGPILPPTNVGSNTY-NH2; disulfide 4-9)
3 | 160 (≈ 736 µg/mL) | 66 (≈ 304 µg/mL) | – | – | – | 88 (≈ 405 µg/mL) | – | > 200 | > 200 | > 200 | > 200 | > 200 | – | 0.111 | 0.147 | 0.221 | 0.166 | > 200 | – | CC[C@H](C)[C@H](NC(=O)[C@@H]1CCCN1C(=O)CNC(=O)[C@H](Cc1ccccc1)NC(=O)[C@H](CC(N)=O)NC(=O)[C@H](CC(N)=O)NC(=O)[C@H](CO)NC(=O)[C@H](CO)NC(=O)[C@H](Cc1cnc[nH]1)NC(=O)[C@H](Cc1cnc[nH]1)NC(=O)[C@H](CC(C)C)NC(=O)[C@H](Cc1ccccc1)NC(=O)[C@H](CCC(=O)O)NC(=O)[C@H](C)NC(=O)[C@H](CC(C)C)NC(=O)[C@H](CCCNC(=N)N)NC(=O)[C@H](CCC(N)=O)NC(=O)[C@@H](NC(=O)[C@H](C)NC(=O)[C@@H]1CSSC[C@H](NC(=O)[C@H](Cc2cnc[nH]2)NC(=O)[C@H](Cc2cnc[nH]2)NC(=O)CC[C@H](NC(=O)CCCCCCCCCCCCCCCCCCC(=O)O)C(=O)O)C(=O)N[C@@H](CC(N)=O)C(=O)N[C@@H]([C@@H](C)O)C(=O)N[C@@H](C)C(=O)N[C@@H]([C@@H](C)O)C(=O)N1)[C@@H](C)O)C(=O)N[C@@H](CC(C)C)C(=O)N1CCC[C@H]1C(=O)N1CCC[C@H]1C(=O)N[C@H](C(=O)N[C@@H](CC(N)=O)C(=O)N[C@H](C(=O)NCC(=O)N[C@@H](CO)C(=O)N[C@@H](CC(N)=O)C(=O)N[C@H](C(=O)N[C@@H](Cc1ccc(O)cc1)C(N)=O)[C@@H](C)O)C(C)C)[C@@H](C)O [Example 17, N-alpha-[(S)-4-Carboxy-4-(19-carboxynonadecanoylamino)butyryl]-His-[His1,Glu14,His17]-pramlintide] ({C20 diacid-γGlu}-HHCNTATCATQRLAEFLHHSSNNFGPILPPTNVGSNTY-NH2; disulfide 3-8)

— US8722849B2, “Polypeptides” (Novo Nordisk A/S, priority 2011, dated 2014)
